Laboratory results as given in US20230416258A1, “BENZ[…], AND PREPARATION METHOD THEREFOR AND USE THEREOF” (CHINA PHARMACEUTICAL UNIVERSITY, priority 2020, published 2023).

Tested on: KM mice
Test: Test for drug-induced disappearance of righting reflex in mice
Format: in vivo
Conditions: single rapid bolus via tail vein
How it was run: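 Female KM mice (18–25 g), randomly grouped, given a single rapid bolus via tail vein. Latency (administration to loss of righting reflex) and duration (loss to recovery) recorded.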

Row | SMILES | Duration (30 mg/kg) | Latency (30 mg/kg) | Duration (60 mg/kg) | Latency (60 mg/kg) | Duration (100 mg/kg) | Latency (100 mg/kg)
1 | COC(=O)CC[C@@H]1N=C(c2ccccc2F)c2cc(Br)ccc2-n2c(SCCCN3CCN(CCO)CC3)nnc21 [Compound 67, methyl (S)-3-(8-bromo-6-(2-fluorophenyl)-1-((3-(4-(2-hydroxyethyl)piperazin-1-yl)propyl)thio)-4H-benzo[f][1,2,4]triazolo[4,3-a][1,4]diazepin-4-yl)propionate] | 11.37 min | 0.84 min | – | – | – | –
2 | COC(=O)CC[C@@H]1N=C(c2ccccc2F)c2cc([N+](=O)[O-])ccc2-n2c(SCCCN3CCN(CCO)CC3)nnc21 [Compound 68, methyl (S)-3-(8-nitro-6-(2-fluorophenyl)-1-((3-(4-(2-hydroxyethyl)piperazin-1-yl)propyl)thio)-4H-benzo[f][1,2,4]triazolo[4,3-a][1,4]diazepin-4-yl)propionate] | – | – | 15.02 min | 0.68 min | – | –
3 | COC(=O)CC[C@@H]1N=C(c2ccccc2F)c2cc(Cl)ccc2-n2c(SCN3CCOCC3)nnc21 [Compound 69, methyl (S)-3-(8-chloro-6-(2-fluorophenyl)-1-((morpholinomethyl)thio)-4H-benzo[f][1,2,4]triazolo[4,3-a][1,4]diazepin-4-yl)propionate] | 21.61 min | 0.90 min | – | – | – | –
4 | COC(=O)CC[C@@H]1N=C(c2ccccc2F)c2cc(Br)ccc2-n2c(SCN3CCOCC3)nnc21 [Compound 70, methyl (S)-3-(8-bromo-6-(2-fluorophenyl)-1-((morpholinomethyl)thio)-4H-benzo[f][1,2,4]triazolo[4,3-a][1,4]diazepin-4-yl)propionate] | 18.61 min | 1.01 min | – | – | – | –
5 | COC(=O)CC[C@@H]1N=C(c2ccccc2F)c2cc([N+](=O)[O-])ccc2-n2c(SCN3CCOCC3)nnc21 [Compound 71, methyl (S)-3-(8-nitro-6-(2-fluorophenyl)-1-((morpholinomethyl)thio)-4H-benzo[f][1,2,4]triazolo[4,3-a][1,4]diazepin-4-yl)propionate] | – | – | 12.10 min | 0.56 min | – | –
6 | COC(=O)CC[C@@H]1N=C(c2ccccc2F)c2cc(Cl)ccc2-n2c(SCN3CCN(c4ccccc4)CC3)nnc21 [Compound 72, methyl (S)-3-(8-chloro-6-(2-fluorophenyl)-1-(((4-phenylpiperazin-1-yl)methyl)thio)-4H-benzo[f][1,2,4]triazolo[4,3-a][1,4]diazepin-4-yl)propionate] | 13.12 min | 0.42 min | 10.67 min | 1.52 min | – | –
7 | COC(=O)CC[C@@H]1N=C(c2ccccc2F)c2cc(Br)ccc2-n2c(SCN3CCN(c4ccccc4)CC3)nnc21 [Compound 73, methyl (S)-3-(8-bromo-6-(2-fluorophenyl)-1-(((4-phenylpiperazin-1-yl)methyl)thio)-4H-benzo[f][1,2,4]triazolo[4,3-a][1,4]diazepin-4-yl)propionate] | 12.12 min | 0.86 min | – | – | – | –
8 | COC(=O)CC[C@@H]1N=C(c2ccccc2F)c2cc([N+](=O)[O-])ccc2-n2c(SCN3CCN(c4ccccc4)CC3)nnc21 [Compound 74, methyl (S)-3-(8-nitro-6-(2-fluorophenyl)-1-(((4-phenylpiperazin-1-yl)methyl)thio)-4H-benzo[f][1,2,4]triazolo[4,3-a][1,4]diazepin-4-yl)propionate] | 6.16 min | 0.47 min | – | – | – | –
9 | COC(=O)CC[C@@H]1N=C(c2ccccc2Cl)c2cc(Cl)ccc2-n2c(SCC3CC3)nnc21 [Compound 75, methyl (S)-3-(8-chloro-6-(2-chlorophenyl)-1-((cyclopropylmethyl)thio)-4H-benzo[f][1,2,4]triazolo[4,3-a][1,4]diazepin-4-yl)propionate] | 6.53 min | 0.51 min | – | – | – | –
10 | COC(=O)CC[C@@H]1N=C(c2ccccc2Cl)c2cc(Br)ccc2-n2c(SCC3CC3)nnc21 [Compound 76, methyl (S)-3-(8-bromo-6-(2-chlorophenyl)-1-((cyclopropylmethyl)thio)-4H-benzo[f][1,2,4]triazolo[4,3-a][1,4]diazepin-4-yl)propionate] | 5.65 min | 0.76 min | – | – | – | –
11 | COC(=O)CC[C@@H]1N=C(c2ccccc2Cl)c2cc([N+](=O)[O-])ccc2-n2c(SCC3CC3)nnc21 [Compound 77, methyl (S)-3-(8-nitro-6-(2-chlorophenyl)-1-((cyclopropylmethyl)thio)-4H-benzo[f][1,2,4]triazolo[4,3-a][1,4]diazepin-4-yl)propionate] | 5.69 min | 0.38 min | – | – | – | –
12 | C#CCSc1nnc2n1-c1ccc(Cl)cc1C(c1ccccc1Cl)=N[C@H]2CCC(=O)OC [Compound 78, methyl (S)-3-(8-chloro-6-(2-chlorophenyl)-1-(prop-2-yn-1-ylthio)-4H-benzo[f][1,2,4]triazolo[4,3-a][1,4]diazepin-4-yl)propionate] | 12.67 min | 1.05 min | – | – | – | –
13 | C#CCSc1nnc2n1-c1ccc(Br)cc1C(c1ccccc1Cl)=N[C@H]2CCC(=O)OC [Compound 79, methyl (S)-3-(8-bromo-6-(2-chlorophenyl)-1-(prop-2-yn-1-ylthio)-4H-benzo[f][1,2,4]triazolo[4,3-a][1,4]diazepin-4-yl)propionate] | 6.93 min | 0.57 min | – | – | – | –
14 | C#CCSc1nnc2n1-c1ccc([N+](=O)[O-])cc1C(c1ccccc1Cl)=N[C@H]2CCC(=O)OC [Compound 80, methyl (S)-3-(8-nitro-6-(2-chlorophenyl)-1-(prop-2-yn-1-ylthio)-4H-benzo[f][1,2,4]triazolo[4,3-a][1,4]diazepin-4-yl)propionate] | – | – | 13.57 min | 0.86 min | – | –
15 | COC(=O)CC[C@@H]1N=C(c2ccccc2Cl)c2cc(Cl)ccc2-n2c(SCCN3CCOCC3)nnc21 [Compound 81, methyl (S)-3-(8-chloro-6-(2-chlorophenyl)-1-((2-morpholinoethyl)thio)-4H-benzo[f][1,2,4]triazolo[4,3-a][1,4]diazepin-4-yl)propionate] | – | – | 6.41 min | 0.21 min | 12.38 min | 0.22 min
16 | CCN(CC)CCSc1nnc2n1-c1ccc(Cl)cc1C(c1ccccc1Cl)=N[C@H]2CCC(=O)OC [Compound 84, methyl (S)-3-(8-chloro-6-(2-chlorophenyl)-1-((2-(diethylamino)ethyl)thio)-4H-benzo[f][1,2,4]triazolo[4,3-a][1,4]diazepin-4-yl)propionate] | 21.9 min | 0.31 min | – | – | – | –
17 | CCN(CC)CCSc1nnc2n1-c1ccc(Br)cc1C(c1ccccc1Cl)=N[C@H]2CCC(=O)OC [Compound 85, methyl (S)-3-(8-bromo-6-(2-chlorophenyl)-1-((2-(diethylamino)ethyl)thio)-4H-benzo[f][1,2,4]triazolo[4,3-a][1,4]diazepin-4-yl)propionate] | – | – | 13.12 min | 0.67 min | – | –
18 | CCN(CC)CCSc1nnc2n1-c1ccc([N+](=O)[O-])cc1C(c1ccccc1Cl)=N[C@H]2CCC(=O)OC [Compound 86, methyl (S)-3-(8-nitro-6-(2-chlorophenyl)-1-((2-(diethylamino)ethyl)thio)-4H-benzo[f][1,2,4]triazolo[4,3-a][1,4]diazepin-4-yl)propionate] | 18.62 min | 0.62 min | – | – | – | –
19 | COC(=O)CC[C@@H]1N=C(c2ccccc2Cl)c2cc(Cl)ccc2-n2c(SCCCN(C)C)nnc21 [Compound 87, methyl (S)-3-(8-chloro-6-(2-chlorophenyl)-1-((3-(dimethylamino)propyl)thio)-4H-benzo[f][1,2,4]triazolo[4,3-a][1,4]diazepin-4-yl)propionate] | – | – | 21.17 min | 0.73 min | – | –
20 | COC(=O)CC[C@@H]1N=C(c2ccccc2Cl)c2cc(Br)ccc2-n2c(SCCCN(C)C)nnc21 [Compound 88, methyl (S)-3-(8-bromo-6-(2-chlorophenyl)-1-((3-(dimethylamino)propyl)thio)-4H-benzo[f][1,2,4]triazolo[4,3-a][1,4]diazepin-4-yl)propionate] | 15.82 min | 0.53 min | – | – | – | –
21 | COC(=O)CC[C@@H]1N=C(c2ccccc2Cl)c2cc([N+](=O)[O-])ccc2-n2c(SCCCN(C)C)nnc21 [Compound 89, methyl (S)-3-(8-nitro-6-(2-chlorophenyl)-1-((3-(dimethylamino)propyl)thio)-4H-benzo[f][1,2,4]triazolo[4,3-a][1,4]diazepin-4-yl)propionate] | – | – | 9.88 min | 0.83 min | – | –
22 | COC(=O)CC[C@@H]1N=C(c2ccccc2Cl)c2cc(Cl)ccc2-n2c(SCCN3CCN(C)CC3)nnc21 [Compound 90, methyl (S)-3-(8-chloro-6-(2-chlorophenyl)-1-((2-(4-methylpiperazin-1-yl)ethyl)thio)-4H-benzo[f][1,2,4]triazolo[4,3-a][1,4]diazepin-4-yl)propionate] | 15.26 min | 0.67 min | – | – | – | –
23 | COC(=O)CC[C@@H]1N=C(c2ccccc2Cl)c2cc(Br)ccc2-n2c(SCCN3CCN(C)CC3)nnc21 [Compound 91, methyl (S)-3-(8-bromo-6-(2-chlorophenyl)-1-((2-(4-methylpiperazin-1-yl)ethyl)thio)-4H-benzo[f][1,2,4]triazolo[4,3-a][1,4]diazepin-4-yl)propionate] | 17.33 min | 1.80 min | – | – | – | –
24 | COC(=O)CC[C@@H]1N=C(c2ccccc2Cl)c2cc([N+](=O)[O-])ccc2-n2c(SCCN3CCN(C)CC3)nnc21 [Compound 92, methyl (S)-3-(8-nitro-6-(2-chlorophenyl)-1-((2-(4-methylpiperazin-1-yl)ethyl)thio)-4H-benzo[f][1,2,4]triazolo[4,3-a][1,4]diazepin-4-yl)propionate] | – | – | 10.12 min | 2.00 min | – | –
25 | COC(=O)CC[C@@H]1N=C(c2ccccc2Cl)c2cc(Cl)ccc2-n2c(SC3CCN(C)CC3)nnc21 [Compound 93, methyl (S)-3-(8-chloro-6-(2-chlorophenyl)-1-((1-methylpiperidin-4-yl)thio)-4H-benzo[f][1,2,4]triazolo[4,3-a][1,4]diazepin-4-yl)propionate] | 12.41 min | 0.58 min | – | – | – | –
